Test results reported in ChEMBL document CHEMBL1123891, “Antimalarial activity of 2-(substituted amino)-4,6-bis(trichloromethyl)-1,3,5-triazines and N-(chlorophenyl)-N'-[4-(substituted amino)-6-(trichloromethyl)-1,3,5-triazin-2-yl]guanidines” (1987).
“And” between values parts separate entries of the source, which are not always exact repeats. Equal values may be shown once.

Legend:
Mus musculus [1] = assay: (§1) Mean survival time was determined against Plasmodium berghei treated mice (Mus musculus) after (subcutaneously) administration of 20 mg/kg; type: functional; parameters: unit not given beside the values; conditions: route subcutaneous
Mus musculus [2] = assay: (§2) Mean survival time was determined against Plasmodium berghei treated mice (Mus musculus) after (subcutaneously) administration of 40 mg/kg; type: functional; parameters: unit not given beside the values; conditions: route subcutaneous
Mus musculus [3] = species: Mus musculus; assay: Dose required for 90% suppression of the parasitaemia in Plasmodium berghei treated mice (Mus musculus) relative to control was determined; type: functional
Mus musculus [4] = assay: Mean survival time was determined against Plasmodium berghei treated mice (Mus musculus) after (subcutaneous) administration of 320 mg/kg; type: functional
Gallus gallus [5] = assay: Mean survival time was determined against Plasmodium gallinaceum treated chicks after (subcutaneous) administration of 120 mg/kg; type: functional
Mus musculus [6] = assay: (§3) Mean survival time was determined against Plasmodium berghei treated mice (Mus musculus) after (subcutaneously) administration of 80 mg/kg; type: functional; parameters: unit not given beside the values; conditions: route subcutaneous
Mus musculus [7] = assay: Mean survival time was determined against Plasmodium berghei treated mice (Mus musculus) after (subcutaneous) administration of 640 mg/kg; type: functional; parameters: unit not given beside the values
Mus musculus [8] = assay: Mean survival time was determined against Plasmodium berghei treated mice (Mus musculus) after (subcutaneous) administration of 160 mg/kg; type: functional; parameters: unit not given beside the values
Mus musculus [9] = assay: Mean survival time was determined against Plasmodium berghei treated mice (Mus musculus) after (subcutaneously) administration of 160 mg/kg; type: functional; parameters: unit not given beside the values; conditions: route subcutaneous
Mus musculus [10] = assay: (§4) Mean survival time was determined against Plasmodium berghei treated mice (Mus musculus) after (subcutaneously) administration of 320 mg/kg; type: functional; parameters: unit not given beside the values; conditions: route subcutaneous
Mus musculus [11] = assay: as §2; type: functional; conditions: route subcutaneous
Mus musculus [12] = assay: as §3; type: functional; conditions: route subcutaneous
Mus musculus [13] = assay: Mean survival time was determined against Plasmodium berghei treated mice (Mus musculus) after (subcutaneous) administration of 20 mg/kg
Gallus gallus [14] = assay: Mean survival time was determined against Plasmodium gallinaceum treated chicks after (subcutaneously) administration of 240 mg/kg; type: functional; conditions: route subcutaneous
Mus musculus [15] = assay: as §1; type: functional; conditions: route subcutaneous
Gallus gallus [16] = assay: Mean survival time was determined against Plasmodium gallinaceum treated chicks after (subcutaneously) administration of 100 mg/kg; type: functional; conditions: route subcutaneous
Gallus gallus [17] = assay: Mean survival time was determined against Plasmodium gallinaceum treated chicks after (subcutaneously) administration of 120 mg/kg; type: functional; conditions: route subcutaneous
Mus musculus [18] = assay: Mean survival time was determined against Plasmodium berghei treated mice (Mus musculus) after (subcutaneously) administration of 640 mg/kg; type: functional; conditions: route subcutaneous
Mus musculus [19] = assay: as §4; type: functional; conditions: route subcutaneous
Gallus gallus [20] = assay: Mean survival time was determined against Plasmodium gallinaceum treated chicks after (subcutaneously) administration of 60 mg/kg; type: functional; conditions: route subcutaneous
Gallus gallus [21] = assay: Mean survival time was determined against Plasmodium gallinaceum treated chicks after (subcutaneous) administration of 240 mg/kg; type: functional

For `N=C(Nc1ccc(Cl)cc1)Nc1nc(NCCCN2CCCCC2)nc(C(Cl)(Cl)Cl)n1`, the “Delta MST” value (Mus musculus [1]) was 0.3, the “Delta MST” value (Mus musculus [2]) was 1.7 and 1.5 and the SD90 (Mus musculus [3]) was 208 mg/kg. For the same molecule, the “Delta MST” value (Mus musculus [4]) was 5.5, the “Delta MST” value (Gallus gallus [5]) was 9.1 and the “Delta MST” value (Mus musculus [6]) was 2.7. For the same molecule, the “Delta MST” value (Mus musculus [7]) was 7.9 and 8.1 and the “Delta MST” value (Mus musculus [8]; 160 mg/kg) was 3.1 and 3.9.
In the case of `CN(C)CCCNc1nc(C(Cl)(Cl)Cl)nc(C(Cl)(Cl)Cl)n1`, the “Delta MST” value (Mus musculus [9]; 160 mg/kg) is reported as 4 and 4.7, the “Delta MST” value (Mus musculus [10]) is reported as 6.8 and the SD90 (Mus musculus [3]) is reported as 125 mg/kg. The “Delta MST” value (Mus musculus [11]; 40 mg/kg) was 2 and 2.1, the “Delta MST” value (Mus musculus [12]) was 2.2 and the “Delta MST” value (Mus musculus [13]) was 1.2. For the same molecule, the “Delta MST” value (Gallus gallus [14]) was 0.3 and the “Delta MST” value (Mus musculus [7]; 640 mg/kg) was 16.3 and 17.7.
`ClC(Cl)(Cl)c1nc(NCCCN2CCCC2)nc(C(Cl)(Cl)Cl)n1` was tested, and the “Delta MST” value (Mus musculus [9]) was 1, the “Delta MST” value (Mus musculus [10]) was 1.6 and the SD90 (Mus musculus [3]) was 86 mg/kg. The “Delta MST” value (Mus musculus [11]) was 0, the “Delta MST” value (Mus musculus [12]) was 0.2 and the “Delta MST” value (Mus musculus [15]) was 0. For the same molecule, the “Delta MST” value (Gallus gallus [14]) was 0.3 and the “Delta MST” value (Mus musculus [7]) was 3.8.
`CN(C)CCCNc1nc(/N=C(\N)Nc2ccc(Cl)c(Cl)c2)nc(C(Cl)(Cl)Cl)n1` was tested, and the “Delta MST” value (Gallus gallus [16]) was 0.2, the “Delta MST” value (Mus musculus [9]; 160 mg/kg) was 12.3 and 12.6 and the SD90 (Mus musculus [3]) was 100 mg/kg. For the same molecule, the “Delta MST” value (Mus musculus [11]; 40 mg/kg) was 1.3 and 1.6 and the “Delta MST” value (Mus musculus [7]; 640 mg/kg) was 15.5 and 14.9.
For `N=C(Nc1ccc(Cl)cc1)Nc1nc(NCCCCCN2CCCC2)nc(C(Cl)(Cl)Cl)n1`, the “Delta MST” value (Mus musculus [1]) was 0.6, the “Delta MST” value (Mus musculus [2]) was 1 and 1.2 and the SD90 (Mus musculus [3]) was 145 mg/kg. The “Delta MST” value (Mus musculus [4]) was 4, the “Delta MST” value (Gallus gallus [5]) was 0.7 and the “Delta MST” value (Mus musculus [6]) was 2.2. For the same molecule, the “Delta MST” value (Mus musculus [7]) was 7.2 and 7 and the “Delta MST” value (Mus musculus [8]; 160 mg/kg) was 3.8 and 4.2.
In the case of `N=C(Nc1ccc(Cl)cc1)Nc1nc(NCCCN2CCCC2)nc(C(Cl)(Cl)Cl)n1`, the “Delta MST” value (Gallus gallus [17]) is reported as 11.7, the “Delta MST” value (Mus musculus [9]; 160 mg/kg) is reported as 3.7 and 2.3 and the “Delta MST” value (Mus musculus [18]) is reported as 10.1 and 9.9. For the same molecule, the SD90 (Mus musculus [3]) was 235 mg/kg, the “Delta MST” value (Mus musculus [11]) was 0.5 and the “Delta MST” value (Mus musculus [12]) was 1.9. The “Delta MST” value (Mus musculus [15]) was 0.5, the “Delta MST” value (Mus musculus [19]) was 7.5 and the “Delta MST” value (Gallus gallus [14]) was 14.4.
With `N=C(Nc1ccc(Cl)cc1)Nc1nc(NCCCCN2CCCC2)nc(C(Cl)(Cl)Cl)n1` the “Delta MST” value (Mus musculus [1]) was 0.2, the “Delta MST” value (Mus musculus [2]) was 0.4 and 1 and the SD90 (Mus musculus [3]) was 108 mg/kg. The “Delta MST” value (Mus musculus [4]) was 4.8, the “Delta MST” value (Mus musculus [6]) was 2.2 and the “Delta MST” value (Mus musculus [7]) was 5.8 and 5.3. For the same molecule, the “Delta MST” value (Mus musculus [8]; 160 mg/kg) was 3.8 and 4.8.
For `CN(C)CCCNc1nc(/N=C(\N)Nc2ccc(Cl)cc2)nc(C(Cl)(Cl)Cl)n1`, the “Delta MST” value (Mus musculus [2]) was 4.2 and 4.6 and the “Delta MST” value (Mus musculus [8]; 160 mg/kg) was 5.4 and 6.5.
`ClC(Cl)(Cl)c1nc(NCCCCCN2CCCC2)nc(C(Cl)(Cl)Cl)n1` was tested, and the “Delta MST” value (Gallus gallus [17]) was 4.6, the “Delta MST” value (Mus musculus [9]) was 2.3 and the “Delta MST” value (Mus musculus [10]) was 8.6. The SD90 (Mus musculus [3]) was 34 mg/kg, the “Delta MST” value (Mus musculus [11]; 40 mg/kg) was 0.4 and 0.5 and the “Delta MST” value (Mus musculus [12]) was 0.4. For the same molecule, the “Delta MST” value (Mus musculus [15]) was 0, the “Delta MST” value (Mus musculus [8]) was 3 and the Delta MST (Gallus gallus [20]) was 1.2.
`N=C(Nc1ccc(Cl)cc1)Nc1nc(NCCCN2CCCCCC2)nc(C(Cl)(Cl)Cl)n1` was tested, and the “Delta MST” value (Gallus gallus [21]) was 7.2, the “Delta MST” value (Gallus gallus [16]) was 18.7 and the “Delta MST” value (Mus musculus [1]) was 0.7. The “Delta MST” value (Mus musculus [2]) was 1.1 and 0.7, the SD90 (Mus musculus [3]) was 240 mg/kg and the “Delta MST” value (Mus musculus [4]) was 4.5. The “Delta MST” value (Mus musculus [6]) was 1.7, the “Delta MST” value (Mus musculus [7]) was 7.5 and 4.7 and the “Delta MST” value (Mus musculus [8]; 160 mg/kg) was 2.7 and 1.5.
In the case of `CCN1CCCC(Nc2nc(/N=C(\N)Nc3ccc(Cl)cc3)nc(C(Cl)(Cl)Cl)n2)C1` (configuration not stated), the “Delta MST” value (Mus musculus [9]; 160 mg/kg) is reported as 4.7 and 2.3, the “Delta MST” value (Mus musculus [10]) is reported as 5.3 and the SD90 (Mus musculus [3]) is reported as 97 mg/kg. The “Delta MST” value (Mus musculus [11]; 40 mg/kg) was 0.7 and 1.1, the “Delta MST” value (Mus musculus [12]) was 4.1 and the “Delta MST” value (Mus musculus [15]) was 0.3. The “Delta MST” value (Mus musculus [7]; 640 mg/kg) was 10.3 and 9.9.
`ClC(Cl)(Cl)c1nc(NCCCCN2CCCC2)nc(C(Cl)(Cl)Cl)n1` was tested, and the “Delta MST” value (Mus musculus [9]) was 2.8, the “Delta MST” value (Mus musculus [10]) was 4.2 and the SD90 (Mus musculus [3]) was 80 mg/kg. The “Delta MST” value (Mus musculus [11]; 40 mg/kg) was 0.2 and 0.3, the “Delta MST” value (Mus musculus [12]) was 0.4 and the “Delta MST” value (Mus musculus [15]) was 0.2. The “Delta MST” value (Mus musculus [8]) was 2.1 and the “Delta MST” value (Gallus gallus [20]) was 0.1.
`CCN1CCCC(Nc2nc(C(Cl)(Cl)Cl)nc(C(Cl)(Cl)Cl)n2)C1` (configuration not stated) was tested, and the “Delta MST” value (Mus musculus [9]) was 2.8, the SD90 (Mus musculus [3]) was 91 mg/kg and the “Delta MST” value (Mus musculus [11]) was 0.2. The “Delta MST” value (Gallus gallus [14]) was 1.6.
